# Results taken from US5935952A, “Quinolone- or naphthylidone-carboxylic acid derivates or their salts” (Toyama Chemical Co., LTD., priority 1994, dated 1999).
# Where two headings read alike, the source gives them in different places.
# Columns and labels:
# Format in all cases: cell-based
# [1] = system: S. aureus FDA 209P; assay: Antibacterial activity (MIC, agar dilution, standard method of Japan Society of Chemotherapy) against S. aureus FDA 209P; settings: Staphylococcus aureus, FDA209P
# Excerpt: (§1) According to the standard method of Japan Society of Chemotherapy [CHEMOTHERAPY, vol.
# [2] = system: E. coli NIHJ JC-2; assay: Antibacterial activity (MIC, agar dilution, standard method of Japan Society of Chemotherapy) against E. coli NIHJ JC-2; settings: Escherichia coli
# Excerpt: as §1
# [3] = system: S. aureus F-137; assay: Antibacterial activity (MIC, agar dilution, standard method of Japan Society of Chemotherapy) against S. aureus F-137*; settings: Staphylococcus aureus, F137; S. aureus F-137, β-lactamase-producing bacteria; Mueller Hinton agar, 37° C., 20 hours, 10^6 cells/plate
# Excerpt: as §1
# *: β-lactamase-producing bacteria
# [4] = system: S. aureus F-597; assay: Antibacterial activity (MIC, agar dilution, standard method of Japan Society of Chemotherapy) against S. aureus F-597**; settings: Staphylococcus aureus; S. aureus F-597, MRSA (methicillin-resistant S. aureus); Mueller Hinton agar, 37° C., 20 hours, 10^6 cells/plate
# Excerpt: as §1
# **: MRSA (methicillin-resistant S. aureus)
SMILES,MIC ([1]; 20 h),"MIC ([2]; NIHJJC2, 20 h)","MIC ([1]; S. aureus FDA 209P, Mueller Hinton agar, 37° C., 20 hours, 10^6 cells/plate, read-out: MIC)",MIC [3],MIC [4],"MIC ([2]; NIHJJC2, E. coli NIHJ JC-2, Mueller Hinton agar, 37° C., 20 hours, 10^6 cells/plate, read-out: MIC)"
"O=C(O)c1cn(C2CC2)c2cc(N3CCNCC3)c(F)cc2c1=O [Compound B, 1-cyclopropyl-6-fluoro-7-(1-piperazinyl)-1,4-dihydro-4-oxoquinoline-3-carboxylic acid, reference compound]",0.2 µg/mL,≤ 0.05 µg/mL,–,–,–,–
"Cc1c(-c2ccc3c(c2)CNC3)c(F)cc2c(=O)c(C(=O)O)cn(C3CC3)c12 [Compound A, 1-cyclopropyl-6-fluoro-7-(isoindolin-5-yl)-8-methyl-1,4-dihydro-4-oxoquinoline-3-carboxylic acid]",–,–,≤ 0.05 µg/mL,≤ 0.05 µg/mL,≤ 0.05 µg/mL,≤ 0.05 µg/mL
